The values below come from patent US20030199002A1, “Clk-2 nucleic acids, polypeptides and uses thereof” (priority 2000, published 2003).

For data set [1], the system named is SK-HEP-1 cells overexpressing hclk-2. Briefly: Cell death assay (trypan blue exclusion) in SK-HEP-1 cells overexpressing hclk-2. It counts as cell-based, human. Conditions: SK-HEP-1 cells overexpressing hclk-2 vs control cells. How it is done:
(§1) FIG. 11 illustrates the affect of hclk-2 overexpression on sensitivity to menadione, t-butyl hydroperoxide and hydroxyurea of SK-HEP-1 cells. SK-HEP-1 cells overexpressing hclk-2 and control cells were seeded at 1×10^5/well in a 6-well dish and were treated with γ-rays or apoptosis-inducing compounds for various lengths of time (see Table 7). Cells were then trypsinized, diluted and stained with 0.2% trypan blue. Cell viability was expressed as the percentage of cells excluding trypan blue. The data shown are the means of triplicate experiments. When cells were treated with menadione, t-butyl hydroperoxide or hydroxyurea, the viability of SK-HEP-1 cells overexpressing hclk-2 (44%, 30%, 40% respectively) was dramatically lower than that of the control cells (70%, 63%, 76%), respectively.
(§2) To determine the occurrence of cell death, cells were seeded at 1×10^5 in 6-well dishes. The next day the cells were treated by γ-ray (20 Gy) and counted 72 hr later. A series of different apoptosis-inducing agents were also investigated and the cells were analyzed at various times following treatment (see Table 7). Cell viability was measured by the trypan blue exclusion method.

Experiment in data set [2]: as above
It counts as cell-based, human. Conditions: human; SK-HEP-1 cells overexpressing hclk-2; concentration and time per Table 7: menadione 12 μM 24 hr, t-butyl hydroperoxide 40 μM 48 hr, hydroxyurea 0.6 mM 96 hr; means of triplicate; read-out: Cell viability (percentage of cells excluding trypan blue). Here is the method:
as §1, §2

Data set [3] is described as follows: Cell death assay (trypan blue exclusion) in SK-HEP-1 control cells. It counts as cell-based. The note with it: human; SK-HEP-1 control cells (empty vector); concentration and time per Table 7: menadione 12 μM 24 hr, t-butyl hydroperoxide 40 μM 48 hr, hydroxyurea 0.6 mM 96 hr; means of triplicate; read-out: Cell viability (percentage of cells excluding trypan blue). Here is the method:
as §1, §2

As to `CC1=CC(=O)c2ccccc2C1=O` [menadione, Menadione], the “Sensitivity of cells overexpressing hclk-2 to the apoptosis-inducing agent, compared to control cells” value in data set [1] is given as “specifically hypersensitive”.
On the same count and under the same terms, the entry for `NC(=O)NO` [hydroxyurea, Hydroxyurea] is “also hypersensitive”; for `COc1cc([C@@H]2c3cc4c(cc3[C@@H](O[C@@H]3O[C@@H]5CO[C@@H](C)O[C@H]5[C@H](O)[C@H]3O)[C@H]3COC(=O)[C@H]23)OCO4)cc(OC)c1O` [etoposide, Etoposide] it is “no evidence to suggest that an increased sensitivity”.
What is called viability is the share of living cells, or the viability signal relative to a control. As to `CC(C)(C)OO` [t-butyl hydroperoxide, t-Butyl hydroperoxide], the viability in data set [2] was found to be 30%; in data set [3], 63%. The “Sensitivity of cells overexpressing hclk-2 to the apoptosis-inducing agent, compared to control cells” value in data set [1] was “specifically hypersensitive”.
